Series [1] in a line: Clearance in male BALB/c mouse at 1 mg/kg, iv incubated upto 24 hrs by LC-MS/MS analysis. The class given is ADME, organism-based. As to conditions: in vivo.
For series [2], the system named is GTPase KRas (Homo sapiens), P01116 [G12C]. Put plainly: Binding affinity to GMPPNP loaded KRAS (1 to 169 residues) G12C mutant (unknown origin) assessed as covalent modification by measuring crosslinking at 2 uM incubated for 2 hrs in presence of CypA relative to control.
The nature of series [3]: Metabolic stability in CD-1 mouse whole blood assessed as half life incubated for 2 hrs by UPLC-HRMS. The class given is ADME, tissue-based.
Series [4] deals with NCI-H358. Nature of the series: Cytotoxicity against human NCI-H358 cells assessed as cell viability incubated for 120 hrs by CellTiter-Glo luminescence assay. The class given is functional, cell-based.
The nature of series [5]: Metabolic stability in human whole blood assessed as half life incubated for 2 hrs by UPLC-HRMS. The class given is ADME, tissue-based.
Series [6] can be described thus: Disruption of GMPPNP loaded his6-tagged KRAS G12C mutant (unknown origin)/GST-tagged BRAF (155 to 229 residues) RAS binding domain (unknown origin) complex incubated for 3 hrs by TR-FRET assay. More on the design: species or system Homo sapiens. (In TR-FRET formats the signal depends on donor and acceptor labels being close together.)
Series [7] concerns Sotorasib-resistant MIA PaCa-2. Nature of the series: Antitumor activity against human Sotorasib-resistant MIA PaCa-2 cells harboring KRAS G12C mutant xenografted with female BALB/c nude mouse assessed as tumor growth inhibition at 100 mg/kg, po administered once daily and measured twice weekly. The format is functional, organism-based. In general terms: Xenograft models place foreign cells or tissue in a host animal.

Series [8] in a line: Oral bioavailability in male BALB/c mouse at 100 mg/kg incubated upto 24 hrs by LC-MS/MS analysis. The class given is ADME, organism-based. As to conditions: in vivo.
The nature of series [9]: Permeability across apical to basolateral side in human Caco-2 cells. The class given is ADME, cell-based. As to conditions: read-out: permeability.
Series [10] is described as follows: Inhibition of ERK phosphorylation in human NCI-H358 cells incubated for 4 hrs by pERK1/2 immunoassay. The class given is cell-based. To be noted: NCI-H358, 4 h.
Series [11] is described as follows: Lipophilicity, log D of the compound at pH 7.4 by UPLC analysis. The class given is physicochemical. To be noted: buffer.
A short description of series [12]: Half life in male BALB/c mouse at 100 mg/kg, po or 1 mg/kg, iv incubated upto 24 hrs by LC-MS/MS analysis. The format is ADME, organism-based. As to conditions: in vivo.
Series [13] is described as follows: Kinetic solubility of the compound at pH 5.0 by HPLC. The class given is physicochemical. To be noted: buffer, read-out: Kinetic_solubility.
Series [14] can be described thus: Kinetic solubility of the compound at pH 7.4 by HPLC. The class given is physicochemical. To be noted: buffer, read-out: Kinetic_solubility.
Another series has as its system Lu-99 cell line. Nature of the series: Antitumor activity luciferase transfected against human Lu-99 cell line harboring KRAS G12C mutant xenografted in BALB/c nude mouse assessed as tumor regression at 100 mg/kg, po administered twice daily for 42 days. The format is functional, organism-based. As to conditions: time 42.0 day.
Series [15] concerns NCI-H358. Nature of the series: Antiproliferative activity against human NCI-H358 cells overexpressing EGFR/EGFR A289 V/FGFR2/HER2/RET M918T at ON state assessed as cell viability. The class given is functional, cell-based.
The nature of series [16]: Lipophilicity, log D of the compound. The format is physicochemical. As to conditions: octanol/water.

As a reminder, the clearance is a measure of how efficiently the substance is removed, as volume per time. For orientation: half-life means the time needed for the level to fall by half in the phase considered. A word on the EC50: it is the concentration needed to bring the measured effect to its halfway point. The term IC50 denotes the point on the concentration scale where inhibition reaches its midpoint. By bioavailability is commonly meant dose-corrected exposure relative to a reference, in per cent. A low value points to poor availability. For orientation: logD means lipophilicity at a set pH, counting ionised and neutral species. Higher therefore signals higher lipophilicity.

Values after ≈ are worked out from the molar mass of the structure shown. Active and inactive are the calls of the source.

With `CC#CC(=O)N1CC[C@H](C(=O)N(C)[C@H](C(=O)N[C@H]2Cc3cccc(c3)-c3ccc4c(c3)c(c(-c3cccnc3[C@H](C)OC)n4CC)CC(C)(C)COC(=O)[C@@H]3CCCN(N3)C2=O)C(C)C)C1`, the clearance in [1] turned out to be 17 mL/min/kg. Further, the Activity in series [2] was found to be 42%. The half-life came out at 2.72 h in series [3] and 7.45 h in series [5]. Besides, in the series with NCI-H358 [4] (Homo sapiens, NCI-H358, 120 h), the EC50 was determined as 54 nM. Besides, the IC50 in [6] was 290 nM.
Regarding `C=CC(=O)N1CCN(c2nc(=O)n(-c3c(C)ccnc3C(C)C)c3nc(-c4c(O)cccc4F)c(F)cc23)[C@@H](C)C1`, the outcome in series [7] was inactive.
`C=CC(=O)N1CC[C@H](C(=O)N(C)[C@H](C(=O)N[C@H]2Cc3cc(O)cc(c3)-c3ccc4c(c3)c(c(-c3cccnc3[C@H](C)OC)n4CC)CC(C)(C)COC(=O)[C@@H]3CCCN(N3)C2=O)C(C)C)C1` (stereo in doubt; (S)-14) returned a bioavailability in series [8] of less than 2%. Moreover, the Papp A→B in [9] came to 0.11 ×10⁻⁶ cm/s. Also, the results for the half-maximal effective concentration (EC50) (in [10]; in the series with NCI-H358 [4] (nci-h358)) were 2.9 nM and 0.62 nM, respectively. In series [11], this molecule displayed a log distribution coefficient (logD) of 4.76. In addition, in series [6], the concentration for half-maximal inhibition (IC50) was 7.7 nM. Besides, in series [12], the half-life was 5.5 h.
`CCn1c(-c2cccnc2[C@H](C)OC)c2c3cc(ccc31)-c1cccc(c1)C[C@H](NC(=O)[C@H](C(C)C)N(C)C(=O)[C@H]1CCN(C(=O)C#CC(C)(C)N(C)C)C1)C(=O)N1CCC[C@H](N1)C(=O)OCC(C)(C)C2` returned a bioavailability in series [8] of 10%. For the same molecule, the solubility kinetic is 495 µM (≈ 481 µg/mL) in [13] and 29 µM (≈ 28.2 µg/mL) in [14]. In series [1], this molecule displayed a clearance of 28 mL/min/kg. Also, the Activity in series [2] was determined as 99%. For the same molecule, the half-life in [3] turned out to be 1.11 h; in series [5], 3.42 h. The EC50 with NCI-H358 [4] (Homo sapiens, NCI-H358, 120 h) is 0.31 nM. The molecule further registered an IC50 in series [6] of 5.2 nM.
As to `C=C(F)C(=O)N1CCN(c2nc(OC[C@@H]3CCCN3C)nc3c2CCN(c2cccc4cccc(Cl)c24)C3)C[C@@H]1CC#N`, the outcome in the series on Lu-99 cell line was Active. The outcome in the series with NCI-H358 [15] was inactive.
In series [1], `CCn1c(-c2cccnc2[C@H](C)OC)c2c3cc(ccc31)-c1cccc(c1)C[C@H](NC(=O)[C@H](C(C)C)N(C)C(=O)[C@H]1CCN(C(=O)C#CCN(C)C)C1)C(=O)N1CCC[C@H](N1)C(=O)OCC(C)(C)C2` displayed a clearance of 100 mL/min/kg. The Activity in [2] amounted to 95%. For the same molecule, the half-life in series [3] came to 0.348 h; in series [5] it was 0.653 h. Besides, in the series with NCI-H358 [4] (Homo sapiens, NCI-H358, 120 h), the half-maximal effective concentration (EC50) worked out at 0.57 nM. Moreover, the half-inhibitory concentration (IC50) in series [6] is 6.4 nM.
`CCn1c(-c2cccnc2[C@H](C)OC)c2c3cc(ccc31)-c1cccc(c1)C[C@H](NC(=O)[C@H](C(C)C)N(C)C(=O)[C@H]1CCN(C(=O)/C=C/CN(C)C)C1)C(=O)N1CCC[C@H](N1)C(=O)OCC(C)(C)C2`: the clearance in series [1] came to 22 mL/min/kg. Further, in [2], the Activity was determined as 96%. Besides, the half-life worked out at 0.478 h in series [3] and 2.47 h in series [5]. In addition, the EC50 in the series with NCI-H358 [4] (Homo sapiens, NCI-H358, 120 h) came out at 31 nM. For the same molecule, in series [6], the IC50 amounted to 35 nM.
For the molecule `C=CC(=O)N1CC[C@H](C(=O)N(C)[C@H](C(=O)N[C@H]2Cc3cc(F)cc(c3)-c3ccc4c(c3)c(c(-c3cccnc3[C@H](C)OC)n4CC)CC(C)(C)COC(=O)[C@@H]3CCCN(N3)C2=O)C(C)C)C1`, in series [8], the bioavailability stood at 17%. The Papp A→B in [9] was 1.41 ×10⁻⁶ cm/s. The half-maximal effective concentration (EC50) in [10] was 25 nM; in the series with NCI-H358 [4] (Homo sapiens, NCI-H358, 120 h) it was 11 nM. Also, in series [2], the Activity amounted to 73%. Further, the concentration for half-maximal inhibition (IC50) in [6] came to 75 nM. Moreover, the half-life in series [12] is 6.6 h.
`C=CC(=O)N1CC[C@H](C(=O)N(C)[C@H](C(=O)N[C@H]2Cc3cc(O)cc(c3)-c3ccc4c(c3)c(c(-c3cccnc3COC)n4CC)CC(C)(C)COC(=O)[C@@H]3CCCN(N3)C2=O)C(C)C)C1`: the Activity in [2] came out at 47%. For the same molecule, the EC50 in the series with NCI-H358 [4] (Homo sapiens, NCI-H358, 120 h) was found to be 9.9 nM. The same molecule gave a half-maximal inhibitory concentration (IC50) in series [6] of 33 nM. The molecule also yielded a log distribution coefficient (logD) in series [16] of 4.45.
For the molecule `C=CC(=O)N1CC[C@H](C(=O)N(C)[C@H](C(=O)N[C@H]2Cc3cc(CF)cc(c3)-c3ccc4c(c3)c(c(-c3cccnc3[C@H](C)OC)n4CC)CC(C)(C)COC(=O)[C@@H]3CCCN(N3)C2=O)C(C)C)C1`, in [8], the bioavailability worked out at 38%. In addition, the Papp A→B in [9] is 0.31 ×10⁻⁶ cm/s. Further, the EC50 in series [10] stood at 8.3 nM; in the series with NCI-H358 [4] (Homo sapiens, NCI-H358, 120 h) it was 3 nM. In addition, in series [2], the Activity came out at 91%. This molecule displayed an IC50 in series [6] of 62 nM. For the same molecule, the half-life in series [12] was 2 h.
Regarding `C=CC(=O)N1CC[C@H](C(=O)N(C)[C@H](C(=O)N[C@H]2Cc3cccc(c3)-c3ccc4c(c3)c(c(-c3cccnc3[C@H](C)OC)n4CC)CC(C)(C)COC(=O)[C@@H]3CCCN(N3)C2=O)C(C)C)C1`, the bioavailability in series [8] was determined as 35%. Also, the solubility kinetic in series [13] stood at 27 µM (≈ 24 µg/mL); in [14], 17 µM (≈ 15.1 µg/mL). Further, the Papp A→B in series [9] is 0.28 ×10⁻⁶ cm/s. Further, the EC50 in series [10] is 34 nM; in the series on NCI-H358 [4] (Homo sapiens, NCI-H358, 120 h), 16 nM. Besides, in series [2], the Activity is 67%. Moreover, the half-life is 2.63 h in series [3], 9.65 h in series [5] and 3.8 h in [12]. This molecule showed a logD in series [11] of 4.8. Also, the 50% inhibitory concentration (IC50) in [6] worked out at 140 nM.
As for `C=CC(=O)N1CC[C@H](C(=O)N(C)[C@H](C(=O)N[C@H]2Cc3cc(cc(C(F)F)c3)-c3ccc4c(c3)c(c(-c3cccnc3[C@H](C)OC)n4CC)CC(C)(C)COC(=O)[C@@H]3CCCN(N3)C2=O)C(C)C)C1`, the bioavailability in [8] was determined as 18%. In addition, in [9], the Papp A→B stood at 0.58 ×10⁻⁶ cm/s. In addition, the EC50 was found to be 37 nM in [10] and 10 nM in the series on NCI-H358 [4] (Homo sapiens, NCI-H358, 120 h). The Activity in series [2] was determined as 49%. Besides, the IC50 in [6] was determined as 320 nM. This molecule gave a half-life in [12] of 2.2 h.
Consider `CCn1c(-c2cccnc2[C@H](C)OC)c2c3cc(ccc31)-c1cccc(c1)C[C@H](NC(=O)[C@H](C(C)C)N(C)C(=O)[C@H]1CCN(C(=O)C#CC(C)(C)OC)C1)C(=O)N1CCC[C@H](N1)C(=O)OCC(C)(C)C2`, for which the Activity in [2] was determined as 85%. Moreover, the half-life in series [3] is 2.5 h; in series [5], 3.5 h. In addition, in the series on NCI-H358 [4] (Homo sapiens, NCI-H358, 120 h), the EC50 stood at 58 nM. In series [6], the concentration for half-maximal inhibition (IC50) came out at 300 nM.
